The test has as its target T1, human TSHR (Homo sapiens, UniProt P16473).
T1 construct: expressed in transfected cells
Briefly: Measurement of antagonist activity using TSH-induced cAMP production in human TSHR-stably expressing CHO cells. It counts as cell-based. Particulars: human TSH final concentration 50 ng/mL. The procedure, abridged:
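CHO cells stably expressing human TSHR, in HBSS/20 mM HEPES/1 mM IBMX, pre-incubated with compound 15 min at room temperature, then stimulated 1 h at 37°C with human TSH (50 ng/mL final). cAMP measured by HTRF (665/620 nm), expressed as % of control; IC50 from concentration-response.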
On the technique in general: cAMP levels reflect the balance of adenylyl cyclase and phosphodiesterase activity.

The structures appear in SMILES notation.

This note sets out measurements from EP4818157A1, “N-SUBSTITUTED CYCLIC AMIDE COMPOUND” (Kissei Pharmaceutical Co., Ltd., priority 2023, dated 2025).

By IC50 is commonly meant the concentration that gives 50% inhibition. Lower therefore signals higher potency.

T1 sequence (P16473 21-764): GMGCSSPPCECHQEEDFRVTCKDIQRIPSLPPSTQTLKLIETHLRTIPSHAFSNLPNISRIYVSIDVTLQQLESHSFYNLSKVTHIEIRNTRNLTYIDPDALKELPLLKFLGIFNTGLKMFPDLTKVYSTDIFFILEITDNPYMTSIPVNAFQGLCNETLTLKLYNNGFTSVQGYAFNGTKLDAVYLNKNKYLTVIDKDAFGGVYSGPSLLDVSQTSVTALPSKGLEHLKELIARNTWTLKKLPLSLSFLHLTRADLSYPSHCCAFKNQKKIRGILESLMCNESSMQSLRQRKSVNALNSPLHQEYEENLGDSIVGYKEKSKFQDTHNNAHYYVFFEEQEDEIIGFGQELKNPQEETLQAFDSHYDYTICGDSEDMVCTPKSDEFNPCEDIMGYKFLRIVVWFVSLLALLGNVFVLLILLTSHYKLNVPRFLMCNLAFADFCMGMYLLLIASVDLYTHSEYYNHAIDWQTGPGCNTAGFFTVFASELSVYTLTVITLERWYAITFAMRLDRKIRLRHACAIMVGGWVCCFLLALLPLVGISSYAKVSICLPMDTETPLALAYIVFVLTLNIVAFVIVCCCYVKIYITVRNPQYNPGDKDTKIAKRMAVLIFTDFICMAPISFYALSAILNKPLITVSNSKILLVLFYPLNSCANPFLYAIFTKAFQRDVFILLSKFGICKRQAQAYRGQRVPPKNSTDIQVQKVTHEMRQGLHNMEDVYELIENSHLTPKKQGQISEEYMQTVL

For the molecule `NC(=O)Nc1ccc(CO)n(Cc2cc(C(F)(F)F)cc(Cl)c2F)c1=O` [Example E-1, 1-(1-(3-chloro-2-fluoro-5-(trifluoromethyl)benzyl)-6-(hydroxymethyl)-2-oxo-1,2-dihydropyridin-3-yl)urea], the IC50 was less than 3 µM.
With `COCc1ccc(NC(N)=O)c(=O)n1Cc1cc(C(F)(F)F)cc(Cl)c1F` [Example E-2, 1-(1-(3-chloro-2-fluoro-5-(trifluoromethyl)benzyl)-6-(methoxymethyl)-2-oxo-1,2-dihydropyridin-3-yl)urea] the figure was less than 3 µM; with `CN(C)Cc1ccc(NC(N)=O)c(=O)n1Cc1cc(C(F)(F)F)cc(Cl)c1F` [Example E-3, 1-(1-(3-chloro-2-fluoro-5-(trifluoromethyl)benzyl)-6-((dimethylamino)methyl)-2-oxo-1,2-dihydropyridin-3-yl)urea], less than 3 µM.
The result for `NC(=O)Nc1ccc(CN2CCCC2)n(Cc2cc(C(F)(F)F)cc(Cl)c2F)c1=O` [Example E-4, 1-(1-(3-chloro-2-fluoro-5-(trifluoromethyl)benzyl)-2-oxo-6-(pyrrolidin-1-ylmethyl)-1,2-dihydropyridin-3-yl)urea] reads less than 3 µM.
Consider `C=CCc1ccc(NC(N)=O)c(=O)n1Cc1cc(C(F)(F)F)cc(Cl)c1F` [Example E-5, 1-(6-allyl-1-(3-chloro-2-fluoro-5-(trifluoromethyl)benzyl)-2-oxo-1,2-dihydropyridin-3-yl)urea], for which the IC50 is less than 3 µM.
`NC(=O)Nc1ccc(CN2CCCC2)n(Cc2cc(C(F)(F)F)ccc2F)c1=O` [Example E-6, 1-(1-(2-fluoro-5-(trifluoromethyl)benzyl)-2-oxo-6-(pyrrolidin-1-ylmethyl)-1,2-dihydropyridin-3-yl)urea]: the IC50 was less than 3 µM.
With `NC(=O)Nc1ccc2n(c1=O)CC(c1cccc(C(F)(F)F)c1)C2` (stereo not shown) [Example E-7, 1-(5-oxo-2-(3-(trifluoromethyl)phenyl)-1,2,3,5-tetrahydroindolizin-6-yl)urea] the figure was 3 to 30 µM; with `Cc1ccc(NC(=O)C(F)(F)F)c(=O)n1Cc1cc(C(F)(F)F)cc(Cl)c1F` [Example E-8, N-(1-(3-chloro-2-fluoro-5-(trifluoromethyl)benzyl)-6-methyl-2-oxo-1,2-dihydropyridin-3-yl)-2,2,2-trifluoroacetamide], 3 to 30 µM.
The molecule `Cc1ccc(NC(=O)N2CCC2)c(=O)n1Cc1cc(C(F)(F)F)cc(Cl)c1F` [Example E-9, N-(1-(3-chloro-2-fluoro-5-(trifluoromethyl)benzyl)-6-methyl-2-oxo-1,2-dihydropyridin-3-yl)azetidine-1-carboxamide] showed an IC50 of less than 3 µM.
With `NC(=O)N[C@@H]1Cc2ccc(C(F)F)cc2N(Cc2cc(C(F)(F)F)ccc2CO)C1=O` [Example F-1, (R)-1-(7-(difluoromethyl)-1-(2-(hydroxymethyl)-5-(trifluoromethyl)benzyl)-2-oxo-1,2,3,4-tetrahydroquinolin-3-yl)urea] the figure was 3 to 30 µM; with `NC(=O)N[C@@H]1Cc2ccc(C(F)F)cc2N(Cc2cccc(C(F)(F)F)n2)C1=O` [Example F-2, (R)-1-(7-(difluoromethyl)-2-oxo-1-((6-(trifluoromethyl)pyridin-2-yl)methyl)-1,2,3,4-tetrahydroquinolin-3-yl)urea], less than 3 µM.
The result for `CN(C)Cc1cccc2c1N(Cc1cc(C(F)(F)F)ccc1F)C(=O)[C@H](NC(N)=O)C2` [Example F-3, (R)-1-(8-((dimethylamino)methyl)-1-(2-fluoro-5-(trifluoromethyl)benzyl)-2-oxo-1,2,3,4-tetrahydroquinolin-3-yl)urea] reads 3 to 30 µM.
In turn, `NC(=O)N[C@@H]1Cc2ccsc2N(Cc2cc(C(F)(F)F)ccc2F)C1=O` [Example F-4, (R)-1-(7-(2-fluoro-5-(trifluoromethyl)benzyl)-6-oxo-4,5,6,7-tetrahydrothieno[2,3-b]pyridin-5-yl)urea] displayed an IC50 of less than 3 µM.
